Laboratory results as given in ChEMBL document CHEMBL1201862, “PubChem BioAssay data set” (2004).
The source made the active and inactive calls.

What was measured:
[1] = target: T1, Fatty acid synthase (Homo sapiens, UniProt P49327); assay: inhibition of human FAS-TE enzyme activity – biochemical, endpoint fluorescence intensity, uHTS hits, dose response (AID 624327); assay type: functional;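 note: fluorescence from hydrolysis of an O-methyl fluorescein acyl ester substrate by the enzyme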
[2] = Luminescent dose response cell-based high throughput screening assay for inhibitors of the Janus kinase 2 mutant JAK2V617F. [Related pubchem assays: 1446 (Primary screen.), 1521 (Confirmation assay.), 1486 (Counter screen.)]; assay type: functional
[3] = target: T2, Protein RecA (Mycobacterium tuberculosis, UniProt P9WHJ3); assay: Fluorescence Cell-Free Homogeneous Dose Retest to Identify Inhibitors of RecA-Intein Splicing Activity. [Related pubchem assays (depositor defined):AID2097, AID2223, AID489010, AID492950]; assay type: functional
T2 sequence (P9WHJ3 whole entry): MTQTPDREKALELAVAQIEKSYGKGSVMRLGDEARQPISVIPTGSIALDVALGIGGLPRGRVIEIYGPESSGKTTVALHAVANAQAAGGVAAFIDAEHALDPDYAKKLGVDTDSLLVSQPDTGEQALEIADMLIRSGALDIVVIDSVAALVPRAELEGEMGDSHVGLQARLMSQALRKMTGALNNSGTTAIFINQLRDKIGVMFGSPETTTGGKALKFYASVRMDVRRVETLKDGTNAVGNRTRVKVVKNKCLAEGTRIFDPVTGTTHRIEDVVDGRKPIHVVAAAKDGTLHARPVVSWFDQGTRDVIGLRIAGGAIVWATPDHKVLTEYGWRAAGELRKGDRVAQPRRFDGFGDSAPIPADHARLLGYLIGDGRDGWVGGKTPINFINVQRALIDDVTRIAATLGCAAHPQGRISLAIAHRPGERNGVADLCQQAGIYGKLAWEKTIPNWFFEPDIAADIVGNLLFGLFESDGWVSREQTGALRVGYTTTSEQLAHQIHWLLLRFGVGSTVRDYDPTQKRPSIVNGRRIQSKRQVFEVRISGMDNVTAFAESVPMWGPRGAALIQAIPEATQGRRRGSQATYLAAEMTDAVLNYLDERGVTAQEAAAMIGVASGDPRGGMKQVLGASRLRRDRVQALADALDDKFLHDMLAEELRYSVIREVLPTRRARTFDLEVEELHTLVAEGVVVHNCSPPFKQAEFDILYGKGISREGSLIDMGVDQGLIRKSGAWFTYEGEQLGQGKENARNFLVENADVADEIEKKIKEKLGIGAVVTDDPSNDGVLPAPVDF

[4] = target: T1, Fatty acid synthase; assay: inhibition of human FAS-TE enzyme activity – biochemical, kinetic fluorescence intensity, dose response (AID 624326); assay type: functional;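 note: rate of fluorescence rise from hydrolysis of a fluorogenic O-methyl fluorescein ester substrate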
[5] = target: T3, Replicative DNA helicase DnaB (Mycobacterium tuberculosis, UniProt P9WMR3); assay: DnaB intein splicing inhibitors, dose response, biochemical, cell-free fluorescence (AID 449749); assay type: functional
T3 sequence (P9WMR3 whole entry): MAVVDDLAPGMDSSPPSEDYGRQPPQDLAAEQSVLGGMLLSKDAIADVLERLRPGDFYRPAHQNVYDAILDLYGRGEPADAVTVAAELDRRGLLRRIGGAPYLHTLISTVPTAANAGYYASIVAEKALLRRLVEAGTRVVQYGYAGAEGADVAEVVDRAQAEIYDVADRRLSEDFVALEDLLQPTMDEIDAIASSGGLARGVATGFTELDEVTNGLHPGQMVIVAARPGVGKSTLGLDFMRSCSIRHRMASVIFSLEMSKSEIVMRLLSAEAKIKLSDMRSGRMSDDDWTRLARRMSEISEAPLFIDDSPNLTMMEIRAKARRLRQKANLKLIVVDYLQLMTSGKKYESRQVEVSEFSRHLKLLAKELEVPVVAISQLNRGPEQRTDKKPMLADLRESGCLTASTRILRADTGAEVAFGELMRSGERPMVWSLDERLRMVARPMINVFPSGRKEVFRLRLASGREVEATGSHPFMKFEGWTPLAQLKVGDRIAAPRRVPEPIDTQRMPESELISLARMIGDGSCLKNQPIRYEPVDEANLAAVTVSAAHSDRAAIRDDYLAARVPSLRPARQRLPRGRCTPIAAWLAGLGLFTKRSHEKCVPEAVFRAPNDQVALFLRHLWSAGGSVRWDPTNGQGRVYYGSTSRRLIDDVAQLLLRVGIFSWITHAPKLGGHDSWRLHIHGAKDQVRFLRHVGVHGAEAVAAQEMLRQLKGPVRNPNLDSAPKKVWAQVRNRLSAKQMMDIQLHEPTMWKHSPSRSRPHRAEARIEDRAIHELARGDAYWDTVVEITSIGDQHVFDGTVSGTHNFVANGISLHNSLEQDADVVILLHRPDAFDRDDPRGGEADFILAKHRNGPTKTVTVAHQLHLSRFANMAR

[6] = target: Beta-2 adrenergic receptor (Homo sapiens, UniProt P07550); assay: ADRB2 activation measured by internalization – cell-based, FAP fluorogen, flow cytometry, cherry pick 1, dose response (AID 588763); assay type: functional
Beta-2 adrenergic receptor, sequence (P07550 whole entry): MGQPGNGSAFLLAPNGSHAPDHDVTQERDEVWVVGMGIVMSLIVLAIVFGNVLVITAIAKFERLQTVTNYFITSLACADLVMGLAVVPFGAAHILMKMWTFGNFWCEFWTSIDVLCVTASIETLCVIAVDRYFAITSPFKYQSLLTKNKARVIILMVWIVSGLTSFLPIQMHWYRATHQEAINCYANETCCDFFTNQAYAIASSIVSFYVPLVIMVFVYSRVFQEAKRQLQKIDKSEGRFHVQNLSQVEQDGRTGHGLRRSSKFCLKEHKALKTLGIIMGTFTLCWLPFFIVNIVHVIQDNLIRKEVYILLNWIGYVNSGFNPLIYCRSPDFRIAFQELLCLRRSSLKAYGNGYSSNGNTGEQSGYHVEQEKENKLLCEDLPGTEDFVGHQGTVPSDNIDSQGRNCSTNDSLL

[7] = target: T4, Sphingosine 1-phosphate receptor 4 (Homo sapiens, UniProt O95977); assay: Fluorescence dose response cell-based high throughput screening assay for antagonists of the Sphingosine 1-Phosphate Receptor 4 (S1P4). [Related pubchem assays: 1524 (Confirmation in triplicates.), 1510 (Primary screen.)]; assay type: functional
T4 sequence (O95977 whole entry): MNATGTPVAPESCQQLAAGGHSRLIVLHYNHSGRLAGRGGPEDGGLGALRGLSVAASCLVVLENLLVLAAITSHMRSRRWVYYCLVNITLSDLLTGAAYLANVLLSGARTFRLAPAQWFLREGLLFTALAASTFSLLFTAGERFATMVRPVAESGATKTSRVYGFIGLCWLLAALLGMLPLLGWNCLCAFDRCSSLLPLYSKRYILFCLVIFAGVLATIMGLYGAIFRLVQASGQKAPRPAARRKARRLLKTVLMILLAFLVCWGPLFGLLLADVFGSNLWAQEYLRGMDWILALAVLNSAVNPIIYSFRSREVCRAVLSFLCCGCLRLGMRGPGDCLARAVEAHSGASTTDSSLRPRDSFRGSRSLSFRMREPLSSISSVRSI

[8] = target: T4, Sphingosine 1-phosphate receptor 4; assay: Late stage fluorescence dose response cell-based screening assay for antagonists of the Sphingosine 1-Phosphate Receptor 4 (S1P4). [Related pubchem assays: 1524 (Confirmation screen (S1P4 antagonists).), 1510 (Primary screen (S1P4 antagonists).), 1853 (Summary AID (S1P4 antagonists).), 1692 (Dose response screen (S1P4 antagonists).)]; assay type: functional
[9] = target: Sphingosine 1-phosphate receptor 1 (Homo sapiens, UniProt P21453); assay type: functional;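 note: Tango beta-arrestin reporter U2OS cells stimulated with S1P near its EC80; inhibitor potency meaning antagonism of receptor activation by the natural agonist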
Sphingosine 1-phosphate receptor 1, sequence (P21453 whole entry): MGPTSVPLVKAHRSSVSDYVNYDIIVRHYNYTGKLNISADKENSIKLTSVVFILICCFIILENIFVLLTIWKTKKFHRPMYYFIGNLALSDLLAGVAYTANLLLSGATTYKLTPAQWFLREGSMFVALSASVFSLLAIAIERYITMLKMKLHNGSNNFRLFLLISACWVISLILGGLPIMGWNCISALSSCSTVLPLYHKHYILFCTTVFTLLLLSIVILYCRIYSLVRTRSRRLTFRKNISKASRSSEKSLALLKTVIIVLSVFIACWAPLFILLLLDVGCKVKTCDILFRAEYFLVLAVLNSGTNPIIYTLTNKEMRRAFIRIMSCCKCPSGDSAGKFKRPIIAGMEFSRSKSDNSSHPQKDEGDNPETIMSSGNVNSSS

[10] = test system: Vero; assay: viability of Vero cells under compound – cytotoxicity control for flavivirus capping enzyme inhibitors (AID 588742); assay type: functional; details: Chlorocebus sabaeus
[11] = target: G-protein coupled receptor 55 (Homo sapiens, UniProt Q9Y2T6); assay: selective activators of receptor GPR55 – imaging, U2OS cells, beta-arrestin-GFP redistribution, primary screen (AID 1961); assay type: functional
G-protein coupled receptor 55, sequence (Q9Y2T6 whole entry): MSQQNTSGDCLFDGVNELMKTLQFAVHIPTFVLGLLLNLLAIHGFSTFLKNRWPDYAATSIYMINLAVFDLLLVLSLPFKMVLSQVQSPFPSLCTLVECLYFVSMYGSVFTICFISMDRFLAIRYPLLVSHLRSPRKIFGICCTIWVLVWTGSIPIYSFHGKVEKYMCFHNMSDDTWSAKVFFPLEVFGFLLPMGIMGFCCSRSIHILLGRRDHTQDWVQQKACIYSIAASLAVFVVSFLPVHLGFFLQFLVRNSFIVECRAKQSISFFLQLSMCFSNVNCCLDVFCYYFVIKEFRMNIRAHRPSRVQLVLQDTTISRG

[12] = target: Heat shock protein HSP 90-alpha (Homo sapiens, UniProt P07900); assay type: functional, organism-based
[13] = target: T5, Hexokinase HKDC1 (Homo sapiens, UniProt Q2TB90); assay: inhibition of HKDC1 glucose phosphorylation – biochemical, W721R variant, dose response (AID 504729); assay type: functional
T5 sequence (Q2TB90 whole entry): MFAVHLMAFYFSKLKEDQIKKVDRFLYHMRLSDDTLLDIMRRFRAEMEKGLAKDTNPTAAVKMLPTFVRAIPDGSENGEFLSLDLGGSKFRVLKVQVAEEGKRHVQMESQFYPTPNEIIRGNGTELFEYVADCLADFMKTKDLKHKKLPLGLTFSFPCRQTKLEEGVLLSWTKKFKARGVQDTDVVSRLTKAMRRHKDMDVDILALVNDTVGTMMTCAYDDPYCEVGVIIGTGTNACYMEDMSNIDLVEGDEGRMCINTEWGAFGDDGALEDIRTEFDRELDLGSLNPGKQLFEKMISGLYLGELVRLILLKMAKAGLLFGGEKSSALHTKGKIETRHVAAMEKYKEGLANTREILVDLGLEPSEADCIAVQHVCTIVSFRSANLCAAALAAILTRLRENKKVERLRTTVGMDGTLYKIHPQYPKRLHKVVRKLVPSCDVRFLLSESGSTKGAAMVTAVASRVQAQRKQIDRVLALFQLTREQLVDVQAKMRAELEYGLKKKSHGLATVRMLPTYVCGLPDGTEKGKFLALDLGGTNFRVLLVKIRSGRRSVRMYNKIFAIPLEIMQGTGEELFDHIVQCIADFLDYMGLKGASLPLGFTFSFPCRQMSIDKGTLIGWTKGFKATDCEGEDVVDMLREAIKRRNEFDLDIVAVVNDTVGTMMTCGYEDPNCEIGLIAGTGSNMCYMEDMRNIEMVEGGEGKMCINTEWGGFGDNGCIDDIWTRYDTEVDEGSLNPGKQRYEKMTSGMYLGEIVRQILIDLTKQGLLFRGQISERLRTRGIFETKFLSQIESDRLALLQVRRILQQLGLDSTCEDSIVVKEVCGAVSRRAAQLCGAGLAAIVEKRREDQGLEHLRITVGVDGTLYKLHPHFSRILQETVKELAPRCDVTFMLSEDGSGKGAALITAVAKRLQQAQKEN

[14] = target: DNA (cytosine-5)-methyltransferase 1 (Homo sapiens, UniProt P26358); assay: inhibition of DNA methylation by DNMT1 – biochemical, fluorescent molecular beacon, confirmation (AID 602386); assay type: functional
[15] = test system: Jurkat; assay: SAR Analysis of small molecule inhibitors of T-cell specific antigen receptor-induced NF-kB activation in a Jurkat cell line using a luminescence assay - Set 2. [Related pubchem assays (depositor defined):AID435003, AID435012, AID465]; assay type: functional, cell-based; details: Homo sapiens
[16] = loss of viability in HepG2 cells – cell-based, CellTiter-Glo, cherry-picked, cytotoxicity control for Shn3 inhibitor project, dose response (AID 624134); assay type: functional
[17] = test system: HEK293; assay: SAR Analysis of small molecule inhibitors of T-cell specific antigen receptor-induced NF-kB activation in a HEK-293T cell line using a luminescence assay - Set 2. [Related pubchem assays (depositor defined):AID435003, AID435012, AID489026]; assay type: functional, cell-based; details: Homo sapiens
[18] = reduction of Shn3 3'UTR-driven luciferase in osteoblasts – cell-based, Clone20 osteoblasts, firefly luciferase, cherry-picked, dose response (AID 624132); assay type: functional;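 note: firefly luciferase luminescence from reporter carrying the Shn3 3'UTR in osteoblasts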
[19] = test system: INS1; assay: INS-1E survival protection against cytokine death – cell-based, luminescence, retest, dose response (AID 449756); assay type: functional; details: Rattus norvegicus;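 note: cell death triggered by IL-1 beta plus TNF-alpha plus IFN-gamma mixture; protective hits raise ATP signal compared with cytokine alone wells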
[20] = cells; assay type: functional, cell-based
[21] = test system: BJ; assay: cells; assay type: functional, cell-based; details: Homo sapiens
[22] = test system: HEK293; assay: EBV LMP1 TES2 canonical NF-kB signalling blockers – cell-based, HEK293, luciferase, cherry-pick, dose response (AID 588343); assay type: functional; details: Homo sapiens
[23] = target: Serine/threonine-protein phosphatase (Candida dubliniensis (strain CD36 / CBS 7987 / NCPF 3949 / NRRLY-17841) (Yeast), UniProt B9W6M3); assay: blockers of CaCl2-induced CDRE-lacZ signaling – S. cerevisiae, luminescence, secondary, dose response (AID 2388); assay type: functional, cell-based;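 note: yeast reporter cells carrying a calcineurin-responsive lacZ construct stimulated with calcium chloride; luminescent beta-galactosidase reporter signal in whole cells rather than isolated phosphatase activity; potency for inhibition where a drop in reporter signal means calcineurin blockade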
Serine/threonine-protein phosphatase, sequence (B9W6M3 whole entry): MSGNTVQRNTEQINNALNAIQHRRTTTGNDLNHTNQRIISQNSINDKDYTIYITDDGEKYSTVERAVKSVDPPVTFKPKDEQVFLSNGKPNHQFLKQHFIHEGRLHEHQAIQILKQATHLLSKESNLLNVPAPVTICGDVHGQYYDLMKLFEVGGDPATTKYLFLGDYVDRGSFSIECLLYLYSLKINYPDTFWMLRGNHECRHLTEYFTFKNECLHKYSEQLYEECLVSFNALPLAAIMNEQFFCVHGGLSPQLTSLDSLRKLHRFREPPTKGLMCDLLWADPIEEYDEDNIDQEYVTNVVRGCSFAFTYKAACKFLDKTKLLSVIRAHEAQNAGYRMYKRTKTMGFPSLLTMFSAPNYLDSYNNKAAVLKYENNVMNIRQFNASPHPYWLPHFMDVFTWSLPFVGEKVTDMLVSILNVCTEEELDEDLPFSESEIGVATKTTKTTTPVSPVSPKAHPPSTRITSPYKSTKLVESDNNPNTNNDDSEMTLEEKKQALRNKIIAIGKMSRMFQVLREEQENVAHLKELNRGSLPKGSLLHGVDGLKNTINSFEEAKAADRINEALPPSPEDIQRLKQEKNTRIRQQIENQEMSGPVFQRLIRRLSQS

[24] = Luminescence-based dose response cell-based high throughput screening assay for cytotoxic compounds using the IEC-6 intestinal epithelial cell line. [Related pubchem assays: 1858 (Summary AID.), 1825 (Counterscreen.), 1907 (Confirmation screen.)]; assay type: functional
[25] = fluconazole-exposed Candida albicans growth modulators – fluorescence, retest, confirmation (AID 2467); assay type: functional, cell-based
[26] = target: ATP-dependent molecular chaperone HSP82 (Candida albicans (strain WO-1) (Yeast), UniProt C4YTQ8); assay: steroid-induced GRE reporter decrease in yeast – S. cerevisiae, luminescence, Hsp90 inhibitor project, dose response (AID 2400); assay type: functional, cell-based;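 note: beta-galactosidase luminescence from glucocorticoid response element reporter as proxy for Hsp90 function; inhibitor potency where signal loss means Hsp90 inhibition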
[27] = DRD fibroblast viability loss – cell-based, non-viral oncogenic, luminescence, dose response (AID 1934); assay type: functional; details: Homo sapiens
[28] = NIH-3T3 fibroblast cytotoxicity, dose response, cytotoxicity control, cell-based, fluorescence, Alamar Blue, secondary assay (AID 2327); assay type: functional;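 note: NIH-3T3 mouse fibroblasts cultured with fluconazole at 8 µg/mL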
[29] = test system: BJ; assay: BJ-TERT-LT-ST fibroblast viability loss – cell-based, RAS-independent, luminescence, dose response (AID 1935); assay type: functional; details: Homo sapiens;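 note: BJ fibroblasts immortalized with TERT plus LT and ST oncogenes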
[30] = test system: BJ; assay: BJ-TERT fibroblast viability loss – cell-based, RAS-independent, luminescence, dose response (AID 1933); assay type: functional; details: Homo sapiens
[31] = cells; assay type: functional, cell-based; remark: listed apart in the source
[32] = HEK-293T viability loss after treatment – luminescence, T-cell screen hits, cytotoxicity control for TCR NF-kB inhibitor project, dose response (AID 489026); assay type: functional, cell-based;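 note: cells exposed to compound about 14 hours before the viability readout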
[33] = test system: HEK293; assay: HEK293T cell viability loss, resazurin readout – resazurin fluorescence, cytotoxicity control for NF-kB activator project, SAR follow-up (AID 493251); assay type: functional, cell-based; details: Homo sapiens
[34] = non-specific 3'UTR reporter inhibition in Clone20-Shn3RL – cell-based, Renilla luciferase, cherry-picked, counter-screen for Shn3 inhibitor project, dose response (AID 624133); assay type: functional

T1 sequence (P49327 whole entry): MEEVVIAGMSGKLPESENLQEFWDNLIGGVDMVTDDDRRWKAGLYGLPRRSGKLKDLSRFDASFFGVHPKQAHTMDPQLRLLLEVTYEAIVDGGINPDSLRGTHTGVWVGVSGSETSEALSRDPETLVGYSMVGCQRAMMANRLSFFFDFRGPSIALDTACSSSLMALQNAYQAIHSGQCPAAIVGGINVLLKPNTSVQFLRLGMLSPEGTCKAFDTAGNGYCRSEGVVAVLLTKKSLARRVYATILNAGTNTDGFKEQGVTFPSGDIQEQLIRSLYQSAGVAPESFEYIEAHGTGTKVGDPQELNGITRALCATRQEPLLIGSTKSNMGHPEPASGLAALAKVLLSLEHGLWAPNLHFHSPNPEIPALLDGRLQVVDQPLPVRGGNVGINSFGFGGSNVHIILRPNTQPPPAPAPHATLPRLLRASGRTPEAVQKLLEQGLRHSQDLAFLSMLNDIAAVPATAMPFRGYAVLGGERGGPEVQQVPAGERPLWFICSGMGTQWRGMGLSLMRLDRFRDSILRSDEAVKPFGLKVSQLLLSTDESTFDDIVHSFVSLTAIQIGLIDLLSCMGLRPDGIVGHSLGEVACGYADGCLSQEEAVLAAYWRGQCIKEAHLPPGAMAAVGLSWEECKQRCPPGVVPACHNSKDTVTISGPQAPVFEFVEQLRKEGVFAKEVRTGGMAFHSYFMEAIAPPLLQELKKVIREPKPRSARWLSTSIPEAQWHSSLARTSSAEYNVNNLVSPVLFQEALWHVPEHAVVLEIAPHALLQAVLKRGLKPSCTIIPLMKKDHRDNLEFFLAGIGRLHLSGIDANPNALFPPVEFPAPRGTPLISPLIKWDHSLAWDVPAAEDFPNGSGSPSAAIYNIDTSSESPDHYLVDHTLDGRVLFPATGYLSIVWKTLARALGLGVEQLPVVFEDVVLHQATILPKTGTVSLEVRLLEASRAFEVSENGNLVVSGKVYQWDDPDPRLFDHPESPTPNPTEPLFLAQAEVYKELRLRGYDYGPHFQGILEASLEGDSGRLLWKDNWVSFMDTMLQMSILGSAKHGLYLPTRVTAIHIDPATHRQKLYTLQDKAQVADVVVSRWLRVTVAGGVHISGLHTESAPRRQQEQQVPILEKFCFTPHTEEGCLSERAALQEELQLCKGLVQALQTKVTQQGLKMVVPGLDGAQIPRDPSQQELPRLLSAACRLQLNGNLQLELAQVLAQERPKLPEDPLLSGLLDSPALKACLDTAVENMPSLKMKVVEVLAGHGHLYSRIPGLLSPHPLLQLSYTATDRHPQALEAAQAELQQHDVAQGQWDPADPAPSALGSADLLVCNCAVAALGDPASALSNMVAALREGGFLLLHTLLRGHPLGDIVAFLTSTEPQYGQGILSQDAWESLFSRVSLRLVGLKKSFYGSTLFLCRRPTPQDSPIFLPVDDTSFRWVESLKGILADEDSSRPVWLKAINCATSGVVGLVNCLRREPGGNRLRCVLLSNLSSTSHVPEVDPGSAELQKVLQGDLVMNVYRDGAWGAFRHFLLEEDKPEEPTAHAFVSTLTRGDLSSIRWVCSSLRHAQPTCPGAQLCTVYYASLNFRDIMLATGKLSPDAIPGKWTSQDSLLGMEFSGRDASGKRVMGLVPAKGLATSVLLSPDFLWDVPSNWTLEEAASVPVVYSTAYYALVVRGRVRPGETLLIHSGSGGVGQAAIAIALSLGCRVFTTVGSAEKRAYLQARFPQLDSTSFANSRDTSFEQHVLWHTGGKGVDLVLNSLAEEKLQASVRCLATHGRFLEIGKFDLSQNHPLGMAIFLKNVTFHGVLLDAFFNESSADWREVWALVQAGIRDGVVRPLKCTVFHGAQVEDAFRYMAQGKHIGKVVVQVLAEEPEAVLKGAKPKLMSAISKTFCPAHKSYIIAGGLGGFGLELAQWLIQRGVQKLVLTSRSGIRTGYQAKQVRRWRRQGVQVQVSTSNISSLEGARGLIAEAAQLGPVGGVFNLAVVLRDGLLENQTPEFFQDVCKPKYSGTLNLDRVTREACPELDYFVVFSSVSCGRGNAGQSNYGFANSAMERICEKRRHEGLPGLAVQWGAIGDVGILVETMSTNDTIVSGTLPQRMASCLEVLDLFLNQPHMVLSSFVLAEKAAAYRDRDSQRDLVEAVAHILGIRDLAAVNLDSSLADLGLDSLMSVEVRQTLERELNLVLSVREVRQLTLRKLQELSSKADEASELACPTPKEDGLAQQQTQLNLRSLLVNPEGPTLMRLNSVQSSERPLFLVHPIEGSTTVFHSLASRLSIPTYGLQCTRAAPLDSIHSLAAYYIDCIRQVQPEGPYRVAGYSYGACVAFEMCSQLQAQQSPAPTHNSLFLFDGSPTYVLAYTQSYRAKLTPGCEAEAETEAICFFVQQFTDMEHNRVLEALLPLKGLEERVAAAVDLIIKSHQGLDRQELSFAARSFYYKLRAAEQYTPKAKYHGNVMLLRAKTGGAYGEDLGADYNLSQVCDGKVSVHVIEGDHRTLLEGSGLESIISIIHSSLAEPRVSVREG

## CCCC(=O)N(C1CC(C)C(C#N)(C#N)C1(C#N)C#N)N(C)C (stereo not given)
[1]
  IC50: 8.18 µM (active)
[2]
  IC50: 0.562 µM (active)
[3]
  EC50: 1.34 µM (active)
[4]
  IC50: 8.51 µM (active)
[5]
  AC50: 1.61 µM (active)
[6]
  EC50: 35 µM (inactive)
[7]
  IC50: 2.42 µM (active)
[8]
  IC50: 9.68 µM (not active)
[9]
  IC50: > 49.8 µM (not active)

## CCOC(=O)c1c(-n2c(C)cc(C=C3C(=O)NC(=S)NC3=O)c2C)sc2c1CCCC2
[10]
  CC50: 11.9 µM (active)
[11]
  EC50: > 32 µM (inactive)
[12]
  AC50: 2.61 µM (active)
[13]
  IC50: 23.1 µM (inactive)
[14]
  IC50: 10 µM (active)

## CCCC(=O)NC(c1ccccc1Cl)c1ccc2cccnc2c1O (stereo not given)
[15]
  IC50: 4.29 µM (active)
[16]
  AC50: 2.66 µM (active)
[17]
  IC50: 7.04 µM (active)
[18]
  AC50: 1.21 µM (active)
[19]
  AC50: 0.63 µM (active)
[20]
  EC50: > 350 µM (not active)
[21]
  EC50: 7.5 µM (active)
[22]
  AC50: 5.2 µM (active)
[23]
  EC50: > 180 µM (inactive)
[24]
  IC50: 1.44 µM (active)
[25]
  EC50: 0.656 µM (active)
[26]
  EC50: > 150 µM (inactive)
[27]
  EC50: 1.86 µM (inconclusive)
[28]
  EC50: 14.6 µM (active)
[29]
  EC50: 2.49 µM (active)
[12]
  AC50: 4.09 µM (active)
[30]
  EC50: 1.12 µM (active)
[31]
  EC50: 6.59 µM (active)
[32]
  IC50: > 80 µM (inactive)
[33]
  IC50: 9.95 µM (active)
[34]
  AC50: 1.27 µM (active)
